According to patent publication US20240116889A1, “ANTIVIRAL COMPOUNDS AND METHODS” (priority 2019, published 2024):
“Also recorded” adds a separate entry of the source. Like-named read-outs stand apart in the source and are kept apart here.

How the values were obtained:
USSR H1N1 virus [1] = assay type: cell-based, influenza A virus (A/USSR/77)
USSR H1N1 virus [2] = assay type: cell-based, influenza A virus (A/USSR/77); remark: listed apart in the source
[3] = test system: RSV (A2 strain, ATCC VR-1540); assay: RSV production from infected HEp2 cells (immuno-detection / RT-qPCR); assay type: cell-based, human respiratory syncytial virus
SARS-CoV-2 = SARS-CoV-2 replication in NHBE cells (RT-qPCR of media); assay type: cell-based
A549 cells = assay: Cell viability of A549 cells (CellTiter-Glo 2.0); assay type: cell-based, human; details: RDV continuous, TG 30 min, overnight
Experimental: (A) A549 cells were primed with indicated TG, 0.3 μM RDV or DMSO control for 30 min, washed twice with PBS and infected with 0.01 MOI of CoV OC43 for 2 h, after which cells were washed again with PBS and incubated in fresh infection media (OptiMEM supplemented with 0.1 μg/ml TPCK-trypsin for TG primed cells, or fresh media in the continuous presence of RDV. At 24, 48 and 72 hpi, viral RNA extraction was performed on collected supernatants followed by one-step reverse transcription qPCR to detect the relative copy number of hCoV OC43 replicase polyprotein lab RNA, based on relative Ct method. Indicated significance relative to corresponding RDV-treated cells based on 2-way ANOVA Tukey's multiple comparisons test. (B) As in (A), A549 cells were primed continuously with RDV, or for 30 min with indicated TG or DMSO, washed, cultured overnight and subjected to cell viability assay (CellTiter-Glo 2.0 Cell Viability Assay, Promega).

[4] = test system: 2009 pandemic (pdm) H1N1 virus; assay: 2009 pandemic (pdm) H1N1 virus replication in Calu-3 cells (M-gene RNA, RT-qPCR); assay type: cell-based, influenza A virus
[5] = NPTr cells, 30 min priming, […]

`C/C=C(/C)C(=O)O[C@H]1C(C)=C2[C@H]([C@@H]1OC(=O)CCCCCCC)[C@@](C)(OC(C)=O)C[C@H](OC(=O)CCC)[C@@]1(O)[C@H]2OC(=O)[C@@]1(C)O` [TG, thapsigargin] was tested, and the “progeny virus output vs DMSO control” value (USSR H1N1 virus [1]) was “marked reduction in virus output”, the virus reduction (USSR H1N1 virus [1]; NPTr cells pre-primed with 0.1 μM TG for 30 min) was 82% and the virus reduction (USSR H1N1 virus [1]; NPTr cells pre-primed with 0.5 μM TG for 30 min) was 93%. For the same compound, the “duration of the antiviral state after TG exposure” value (USSR H1N1 virus [1]; NPTr cells, 0.5 μM TG for 30 min) was “at least 24 h”, the IC50 (USSR H1N1 virus [1]; [5]) was 7.12 nM and the “Selectivity index (CC50/IC50)” value (USSR H1N1 virus [1]; [5]) was 7952.21. For the same compound, the “progeny virus output vs DMSO control” value (USSR H1N1 virus [2]) was “marked reduction in virus output”, the “virus production, TG before vs 6 h after infection” value (USSR H1N1 virus [2]; myoblasts, 0.5 μM TG 30 min, […]) was “comparable reduction in virus production” and the “duration of the antiviral state after TG exposure” value (USSR H1N1 virus [2]; myoblasts, 1.0 μM TG for 1 h) was “at least 24 h”. For the same compound, the “RSV replication, priming 24 h before or 24 h post-infection” value ([3]; HEp2 cells, 30 min TG priming, 72 h infection) was “strongly inhibited RSV replication”, the “RSV production, TG priming 48 h post-infection” value ([3]; HEp2 cells, 30 min priming) was “rapidly effective in blocking virus production at 48 h post-infection” and the “duration of sustained anti-viral effect on RSV” value ([3]; HEp2 cells, 30 min priming) was “over 48 h”. For the same compound, the Selectivity index ([3]; HEp-2 cells, 3 d infection period) was 1346.499, the IC50 ([3]; HEp-2 cells, RSV, 3 d infection period) was 66.8 nM and the “RSV progeny virus production, viral M-gene RNA” value ([3]; HEp-2 cells, TG 30 min priming, Riba continuously present, four days post-infection) was “superior to the continuous presence of ribavirin; also recorded: significantly inhibited”. For the same compound, the “SARS-CoV-2 replication” value (SARS-CoV-2) was “highly inhibitory”, the “cell viability” value (A549 cells) was “no adverse effect on cell viability” and the “pdm 2009 H1N1, separate infection and co-infection with SARS-CoV-2” value [4] was “blocked”. For the same compound, the “cell viability after priming” value (NHBE cells; 30 min priming at doses used for infection studies) was “no cytotoxic effect on cell viability”, the “cell viability on continuous exposure” value (NHBE cells; continuous 5 nM TG for 24 h) was “no reduction in cell viability” and the CC50 (NHBE cells; read-out: cellular cytotoxicity CC50, 30 min priming, viability after 24 h) was 33500 nM.
